Test results reported in patent publication US11135308B2, “Maytansinoid derivatives with self-immolative peptide linkers and conjugates thereof” (priority 2017, dated 2021).

Tests used:
H1703 Cells = experiment: In vitro cytotoxicity of predominant ADC metabolites, H1703; type: cell-based
Description: (§1) Assays were performed in flat bottom 96-well plates in triplicate for each data point. Test articles were first diluted in complete cell culture media using 5-fold dilution series and 100 μL were added into each well. The final concentrations typically ranged from 3×10^−8 M to 8×10^−14 M. The target cells were then added to the test articles at 1,500 to 3,000 cells per well in 100 μL of complete culture media. The mixtures were incubated at 37° C. in a humidified 5% CO2 incubator for 5 days. Viability of the remaining cells was determined by the WST-8 (Tetrazolium salt-8; 2-(2-methoxy-4-nitrophenyl)-3-(4-nitrophenyl)-5-(2,4-disulfophenyl)-2H-tetrazolium) based colorimetric assay using the Cell Counting Kit-8 (Dojindo Molecular Technologies, Inc., Rockville, Md.). The WST-8 is reduced by dehydrogenases in live cells to give a yellow-colored formazan product that is soluble in tissue culture media. […] The WST-8 signals were then measured using a microplate plate reader at optical density of 450 nm. The surviving fraction was calculated by dividing the value of each treated sample by the average value of untreated controls, and plotted against the test article concentrations in a semi-log plot for each treatment. IC50 values were determined using nonlinear regression (curve fit) with GraphPad Prism v5 program (GraphPad Software, La Jolla, Calif.). […]

COLO704 Cells = experiment: In vitro cytotoxicity of predominant ADC metabolites, COLO704; type: cell-based
Description: as §1

FRα-expressing KB cells = experiment: In vitro metabolism study in KB cells; type: in vitro ADME; settings: KB cells treated with saturating amount of 17c conjugate for 24 hours; UHPLC/HRMS
Description: FRα-expressing KB cells were treated with a saturating amount of 17c conjugate for 24 hours. Catabolite-containing media was incubated with 5 mM NEM to cap any free thiol present and then captured by pre-bound protein A-anti-maytansinoid antibody complex. The catabolites were released by acetone extraction, and analyzed by UHPLC/HRMS.

H1975 Cells = experiment: In vitro cytotoxicity of predominant ADC metabolites, H1975; type: cell-based
Description: as §1

| Compound | IC50 (H1703 Cells) | IC50 (COLO704 Cells) | catabolites identified in cell culture media (FRα-expressing KB cells) | IC50 (H1975 Cells) |
| --- | --- | --- | --- | --- |
| COc1cc2cc(c1Cl)N(C)C(=O)C[C@H](OC(=O)[C@H](C)N(C)C(=O)CCCCCSC)[C@]1(C)O[C@H]1[C@H](C)[C@@H]1C[C@@](O)(NC(=O)O1)[C@H](OC)/C=C/C=C(\C)C2 [metabolite 25a, DM-CO—(CH2)5-SMe] | 2.27 pM | 3.04 pM | major effluxed catabolites | – |
| COc1cc2cc(c1Cl)N(C)C(=O)C[C@H](OC(=O)[C@H](C)N(C)C(=O)CCCSC)[C@]1(C)O[C@H]1[C@H](C)[C@@H]1C[C@@](O)(NC(=O)O1)[C@H](OC)/C=C/C=C(\C)C2 [metabolite 25b, DM-CO—(CH2)3-SMe] | 5.92 pM | 6.88 pM | – | 5.6 pM |
